The test system of data set [1] is h-Tel quadruplex DNA, 5'-biotin-d[AG3(T2AG3)3] (DNA, G4) AGGGTTAGGGTTAGGGTTAGGG
Put plainly: SPR.

Data set [2] deals with T1, human recombinant M2 muscarinic receptor (Homo sapiens, UniProt P08172).
T1 sequence (P08172 1-466): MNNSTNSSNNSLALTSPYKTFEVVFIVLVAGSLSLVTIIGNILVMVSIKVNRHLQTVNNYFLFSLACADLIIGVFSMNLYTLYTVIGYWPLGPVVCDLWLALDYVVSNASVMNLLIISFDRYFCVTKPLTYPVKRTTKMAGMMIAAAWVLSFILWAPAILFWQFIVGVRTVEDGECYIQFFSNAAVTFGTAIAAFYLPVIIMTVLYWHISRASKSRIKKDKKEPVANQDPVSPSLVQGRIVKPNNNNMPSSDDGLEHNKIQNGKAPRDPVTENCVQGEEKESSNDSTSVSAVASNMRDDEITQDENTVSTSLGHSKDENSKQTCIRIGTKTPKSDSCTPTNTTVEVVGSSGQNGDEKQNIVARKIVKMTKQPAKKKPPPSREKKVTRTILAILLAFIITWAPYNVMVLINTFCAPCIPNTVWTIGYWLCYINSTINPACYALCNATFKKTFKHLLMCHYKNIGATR
Put plainly: M2 muscarinic receptor inhibition assay. Format: binding. As to conditions: read-out: Muscarinic (M2) % inh @1 μM. The protocol:
(§1) hEGR study and the M2 and the β2 receptor inhibition assay were performed as previously reported.
(§2) The new G-quadruplex ligands were designed in an attempt to obtain molecules with improved toxicological and on-target profiles, but maintaining the same favorable chemical and pharmacological features of the lead compound 1. With the aim of selecting the best variants, a step by step comparative analysis of their off- and on-target properties was performed. Initially the new molecules were tested for their ability to interact with and inhibit the human recombinant β2 adrenergic and M2 muscarinic receptors, and to reduce the hERG tail current in a patch clamp assay. […] Therefore, we might expect that the new ligands would impair cardiac functionality to a lesser extent than the lead molecule does.

The target in the next data set is hERG (Homo sapiens, UniProt Q12809). Put plainly: hERG tail current inhibition in a patch clamp assay. As to conditions: read-out: hERG % inh @10 μM. Format: cell-based. The protocol:
as §1, §2

The subject of data set [3] is h-Tel quadruplex DNA sequence 5'-d[AGGG(TTAGGG)3]-3'. Put plainly: SPR binding to quadruplex DNA. The arrangement: species or system human. The protocol:
Oligonucleotides 5’-biotin-d [AG3 (T2AG3)3] quadruplex and 5’-biotin-CGA3T3C(CT)2GA3T3CG were purchased from Midland Certified Reagent Company (Midland, TX). Purification of DNA, preparation of solutions, collection of data, and analysis of results were conducted according to methods adopted in an earlier study.
This technique takes advantage of the refractive index change elicits by the binding of the drug with the h-Tel quadruplex DNA sequence 5’-d[AGGG(TTAGGG)3]-3’ or an alternating hairpin duplex sequence immobilized on a sensor chip surface.

Data set [4] deals with human 'normal' lung WI-38 cells. Put plainly: MTT proliferation assay, WI-38. Format: cell-based. The protocol:
Normal WI-38 diploid human lung fibroblasts and the human colorectal adenocarcinoma HT29 cells were obtained from American Type Culture Collection (Manassas, VA, USA). BJ fibroblasts expressing hTERT and SV40 early region (BJ-EHLT) were obtained as previously reported. Cells were grown in Dulbecco Modified Eagle Medium (D-MEM, Invitrogen Carlsbad, CA, USA) supplemented with 10% fetal calf serum, 2 mM L-glutamin and antibiotics.
MTT (3-(4,5-Dimethylthiazol-2-yl)-2,5-diphenyltetrazolium Bromide) assay was performed in treated and untreated cells for 96 hours. Cells were incubated with MTT solution (Sigma-Aldrich), and the purple formazan crystals were dissolved in isopropanol. Optical densities (OD) at 540 nm was determined on microplate reader.
Firstly, we investigated if they were able to efficiently promote growth inhibition of tumor cells without affecting the survival of normal cells in vitro. In Table 1 we report for each compound the concentration causing 50% of growth inhibition (GI50) calculated by performing a proliferation assay in the human colon cancer cell line HT-29 or in the human ‘normal’ lung WI-38 cells. […] On the basis of results described so far, we decided to exclude from the further analysis ligand 10 for its high value of hERG inhibition (95%) (Table 1).
(Tetrazolium assays rely on reduction of a dye to a coloured formazan, in cell work by metabolically active cells.)

Another data set has as its system HT29 cells. Put plainly: Colony forming ability, single agent or combined with SN-38. Format: cell-based, human. The method, then:
The HT29 cells were seeded in 60 mm- Petri dishes at a density of 5x10^4 cells/ plate in DMEM medium plus 10% serum FCS. After 24 hours cells were exposed to the following drugs: Ethyl-10-hydroxy-camptothecin (SN-38; 0.2, 0.4, 0.8 μM for 2 hrs), compound 8 (at 0.1, 0.2 and 0.4 μM for 96 hours) and compound 1 (0.5 and 1 μM for 96 hours). In the combination experiments the two different sequence of drug administration were evaluated: campthotecin followed by G-quadruplex ligands and the inverse sequence at fixed equipotent ratios. The medium containing the first drug was removed and replaced with fresh medium containing the second drug. Colony forming ability was evaluated as previously reported.
Synergism, additivity, and antagonism were assessed by isobologram analysis as reported previously. Combination index (CI) values <0.9, > 0.9 < 1.2, and >1.2 indicate synergism, additivity, and antagonism, respectively. The Student’s t-test (unpaired, two-tailed) was used for comparing statistical differences. Differences were considered statistically significant when P < 0.05.
We have previously reported that compound 1 in combination therapy with topoisomerase (TOPO) I inhibitors (Camptothecins) produced a synergistic antitumoral activitiy in in vitro and in vivo models. […] The study of in vitro interaction between agent 8 and ethyl-10-hydroxy-camptothecin (SN-38), the active metabolite of camptothecin Irinotecan, was preceded by experiments in which the cell colony-forming ability of the human colorectal adenocarcinoma HT29 cells was evaluated at different doses of compound 1 or 8. […]
Figure 3 Anti-tumor efficacy of compound 8 in single or combined administration with the topoisomerase I inhibitor SN-38. […] Surviving fractions were calculated as the ratio of absolute survival of the treated sample/absolute survival of the untreated sample. […] In the histograms the surviving fractions calculated as in (A) are reported. […] (C) Combination Index for SN-38 and 8 was calculated by the Chou–Talalay method. […]

Sequence of hERG (Q12809 whole entry): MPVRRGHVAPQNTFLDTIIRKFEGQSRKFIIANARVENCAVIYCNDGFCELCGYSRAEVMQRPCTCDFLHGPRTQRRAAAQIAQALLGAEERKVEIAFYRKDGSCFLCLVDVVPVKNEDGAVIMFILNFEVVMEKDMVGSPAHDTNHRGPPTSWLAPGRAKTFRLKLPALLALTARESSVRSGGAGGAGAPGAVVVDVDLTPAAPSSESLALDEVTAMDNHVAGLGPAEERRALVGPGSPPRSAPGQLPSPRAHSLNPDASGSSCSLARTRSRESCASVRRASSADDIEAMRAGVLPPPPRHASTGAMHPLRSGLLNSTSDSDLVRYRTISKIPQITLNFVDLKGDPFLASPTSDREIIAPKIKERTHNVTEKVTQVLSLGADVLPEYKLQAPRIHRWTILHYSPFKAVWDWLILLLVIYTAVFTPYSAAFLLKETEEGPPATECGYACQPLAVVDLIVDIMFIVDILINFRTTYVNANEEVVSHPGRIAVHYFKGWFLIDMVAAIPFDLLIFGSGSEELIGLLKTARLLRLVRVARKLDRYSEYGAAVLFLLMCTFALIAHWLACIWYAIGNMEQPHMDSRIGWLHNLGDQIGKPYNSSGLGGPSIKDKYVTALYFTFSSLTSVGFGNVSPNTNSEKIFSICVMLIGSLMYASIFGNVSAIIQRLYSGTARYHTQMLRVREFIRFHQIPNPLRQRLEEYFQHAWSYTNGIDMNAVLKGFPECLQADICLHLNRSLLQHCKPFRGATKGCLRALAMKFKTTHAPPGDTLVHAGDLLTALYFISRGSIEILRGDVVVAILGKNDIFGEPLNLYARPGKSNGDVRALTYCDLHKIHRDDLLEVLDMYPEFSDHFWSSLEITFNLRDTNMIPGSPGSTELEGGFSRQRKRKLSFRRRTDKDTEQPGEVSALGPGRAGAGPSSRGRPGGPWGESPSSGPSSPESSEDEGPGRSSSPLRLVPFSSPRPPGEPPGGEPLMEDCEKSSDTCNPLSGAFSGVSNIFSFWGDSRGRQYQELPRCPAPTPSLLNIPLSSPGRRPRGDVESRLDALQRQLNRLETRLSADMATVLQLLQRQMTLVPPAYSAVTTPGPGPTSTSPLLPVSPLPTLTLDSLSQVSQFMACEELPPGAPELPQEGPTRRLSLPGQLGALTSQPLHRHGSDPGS

Usually GI50 stands for the concentration giving 50% growth inhibition. As for `CC(=O)NCC#Cc1ccc2c3cccc4c3c([n+](C)c2c1)-c1ccccc1N4C` [Compound 8], the K in data set [1] came to 1.42e+07 M⁻¹. Moreover, in data set [2], the inhibition at 1 µM turned out to be 99%. On hERG, the inhibition at 10 µM was found to be 40%. In addition, the “Quadruplex DNA affinity K” value in data set [3] is 14,2 x10^6 M^−1. The Quadruplex/duplex ratio in data set [3] (quadruplex vs duplex affinity) is 15,8. Moreover, the “Ratio PMX WI38/HT29” value in data set [4] (GI50 WI-38 / GI50 HT-29) was 33,5. Growth in data set [4] (Homo sapiens, WI-38, MTT, 96 hours) was halved (GI50) at 25.1 µM. Besides, in the data set on HT29 cells (HT29, 96 hours, 0.1 to 0.8 μM), the “cell survival (colony-forming ability), single agent” value is listed as “inhibited cell survival in a dose-dependent manner like compound 1 but more efficiently so”. The “Interaction with SN-38, inverse sequence” value with HT29 cells (HT29, G4-ligand followed by SN-38) is given as “additive or slight synergistic interaction”. Further, the “Combination Index (CI) with SN-38” value in the data set with HT29 cells (HT29, SN-38 (2 hrs) followed by the G4-ligand (96 hours)) was less than 0.5.
